Reference: PubChem BioAssay (NCI)
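Method: 48-hour compound exposure of cells in 96-well plates, five concentrations, linear interpolation of endpoints. Definition used: TGI = concentration required for complete inhibition of growth.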

Tests used:
Experiment in all cases: inhibition of tumour cell growth, NCI panel, 48 h
LOX IMVI melanoma = test system: LOX IMVI melanoma
EKVX NSCLC = test system: EKVX NSCLC
MOLT-4 leukemia = test system: MOLT-4 leukemia
SF-295 CNS = test system: SF-295 CNS
TK-10 renal = test system: TK-10 renal
SK-MEL-5 melanoma = test system: SK-MEL-5 melanoma
HL-60(TB) leukemia = test system: HL-60(TB) leukemia
SK-MEL-2 melanoma = test system: SK-MEL-2 melanoma
SW-620 colon = test system: SW-620 colon
SK-OV-3 ovarian = test system: SK-OV-3 ovarian
IGROV1 ovarian = test system: IGROV1 ovarian
NCI-H226 lung = test system: NCI-H226 lung

Compound | TGI (LOX IMVI melanoma) | TGI (EKVX NSCLC) | TGI (MOLT-4 leukemia) | TGI (SF-295 CNS) | TGI (TK-10 renal) | TGI (SK-MEL-5 melanoma) | TGI (HL-60(TB) leukemia) | TGI (SK-MEL-2 melanoma) | TGI (SW-620 colon) | TGI (SK-OV-3 ovarian) | TGI (IGROV1 ovarian) | TGI (NCI-H226 lung)
COc1cc(/C=C2/C(=O)N(C(=O)c3ccc(Cl)cc3)N=C2C)cc(OC)c1OC | > 100 µM | > 100 µM | > 100 µM | > 100 µM | > 100 µM | > 100 µM | > 100 µM | > 100 µM | > 100 µM | > 100 µM | > 100 µM | 
[N-]=[N+]=NC(CBr)c1cn([C@H]2C[C@H](O)[C@@H](CO)O2)c(=O)[nH]c1=O (stereo partly drawn) | > 100 µM | > 100 µM | > 100 µM | > 100 µM | > 100 µM | > 100 µM | > 100 µM | > 100 µM | > 100 µM | > 100 µM | > 100 µM | > 100 µM
Cn1c2cc(O)cc(O)c2c(=O)c2c([N+](=O)[O-])cccc21 | > 100 µM | > 100 µM | > 100 µM | > 100 µM | > 100 µM | > 100 µM | > 100 µM | > 100 µM | > 100 µM | > 100 µM | > 100 µM | > 100 µM
COC(=O)c1ccc(Cc2ccc(C(=O)OC)o2)o1 | > 378 µM | > 378 µM | > 378 µM | > 378 µM | > 378 µM | > 378 µM | > 378 µM | > 378 µM | > 378 µM | > 378 µM | > 378 µM | > 378 µM
COC(=O)[C@@]12OC[C@]34C([C@@H](O)C1O)[C@@]1(C)CC(=O)C(OC(=O)/C=C(/c5ccccc5)C(F)(F)F)=C(C)C1C[C@H]3OC(=O)[C@H](O)[C@H]42 (stereo partly drawn) |  | > 50 µM | 26.9 µM | 28.1 µM | > 50 µM | 31.4 µM | 2.97 µM | 27.4 µM |  | > 50 µM | 21.2 µM | 29.5 µM
C=CCN(C)CN(C)c1nc(N(C)C)nc(N(C)C)n1 | > 100 µM | > 100 µM | > 100 µM | > 100 µM | > 100 µM | > 100 µM | 48.7 µM | > 100 µM | > 100 µM | > 100 µM | > 100 µM | 
Cn1ncnc1CCc1ccccc1 | > 100 µM |  | > 100 µM | > 100 µM | > 100 µM | > 100 µM | > 100 µM | > 100 µM | > 100 µM | > 100 µM | > 100 µM | > 100 µM
CC(C)C(/C=C/c1ccc(Br)cc1)=N\NC(N)=O | > 100 µM | > 100 µM | > 100 µM | > 100 µM | > 100 µM | > 100 µM | > 100 µM | > 100 µM | > 100 µM | > 100 µM | > 100 µM | > 100 µM
CCOC(=O)c1ccc(-n2c(SCC)nc3sc(C)c(C)c3c2=O)cc1 | > 100 µM | > 100 µM |  | > 100 µM | > 100 µM | > 100 µM | > 100 µM | > 100 µM | > 100 µM | > 100 µM | > 100 µM | > 100 µM
Cc1ccc(O)c(C(=O)CCCC(=O)c2cc(C)ccc2O)c1 | > 100 µM | > 100 µM | > 100 µM | > 100 µM | > 100 µM | > 100 µM | > 100 µM | > 100 µM | > 100 µM | > 100 µM | > 100 µM | > 100 µM
CSc1nc2[nH]c(=O)c(C)nc2c(=O)[nH]1 | > 100 µM | > 100 µM | > 100 µM | > 100 µM | > 100 µM | > 100 µM | > 100 µM | > 100 µM | > 100 µM | > 100 µM | > 100 µM | 
COC(=O)C(Cc1nc2ccc(Cl)cc2[nH]c1=O)/C(=N/NC(N)=O)C(=O)Nc1ccc(Cl)cc1 (stereo not drawn) | > 100 µM | > 100 µM | > 100 µM | > 100 µM | > 100 µM | > 100 µM | > 100 µM | > 100 µM | > 100 µM | > 100 µM | > 100 µM | > 100 µM
COc1ccc(CNc2nc3c(NC(C)=O)cc(C(F)(F)F)cc3nc2-c2ccccc2)cc1OC | > 100 µM | > 100 µM | > 100 µM | > 100 µM | > 100 µM | > 100 µM | > 100 µM | > 100 µM | > 100 µM | > 100 µM | > 100 µM | 
COc1cc2c(cc1OC)C(=O)C(C1=C(SC(=N)N)C(=O)c3cc(OC)c(OC)cc31)C2 (stereo not drawn) | > 100 µM | > 100 µM | > 100 µM | > 100 µM |  | > 100 µM |  | > 100 µM | > 100 µM | > 100 µM | > 100 µM | > 100 µM
O=C1CC(=O)N(CCc2ccccc2)S(=O)(=O)N1CCc1ccccc1 | 3.72 µM |  | 44.2 µM | 35.4 µM | > 100 µM | 44.2 µM | 38.3 µM | 48.3 µM | > 100 µM | 61 µM | 42 µM | 
